Source: patent US20030176689A1, “Inhibitors of hepatitis C virus protease” (priority 2001, published 2003)
Square brackets hold non-standard residues; d marks the D form. Ends that are not written are not given here. Peptide text beside a SMILES is read from it. Cha = N[C@@H](CC1CCCCC1)C(=O)O; Pen = CC(C)(S)[C@H](N)C(=O)O

Legend:
NS3 protease = NS3 protease (Hepatitis C virus genotype 1a, UniProt P27958); assay: Rates of NS3 in the presence of short NS4A peptides; assay type: biochemical, HCV; settings: substrate 5A-pNA subsaturating; 66 to 360 μM peptide
Method: The ability of the short peptides to activate the NS3 protease was tested at several concentrations between 66 and 360 μM peptide. The concentration of substrate 5A-pNA was subsaturating.

HCV NS3 protease domain = target: T1, HCV NS3 protease domain (Hepatitis C virus genotype 1a, UniProt P27958); assay: FAC-MS (frontal affinity chromatography with in-line MS) binding to immobilized NS3
T1 construct: immobilization of the NS3 protease domain on streptavidin coated beads; made in house; host or cells: E. coli
Source text: An assay using frontal affinity chromatography (FAC) with an in-line mass spectrometer (MS) as described by Schriemer et al. 1998 Agnew. Chem. Int. Ed. 37, 3383-3387 (referred to as FAC-MS) was adapted to identify NS3 protease inhibitors. Briefly, a HCV NS3 protease domain was cloned into a site in a vector that allows for the recombinant NS3 protein to be biotinylated when expressed in E. coli. This provides for immobilization of the NS3 protease domain on streptavidin coated beads which are packed into a miniaturized column. The column is connected in-line to a mass spectrometer. This arrangement facilitates assaying combinatorial compounds individually from a library of peptides for activity in binding the immobilized NS3 protease domain. As the library is continually infused through the column, each compound produces a sigmoidal curve as its elution profile.
The inventors first examined the ability of mutant NS4A peptides to bind to NS3 using the FAC-MS assay described in Example 1. The sequence of the peptides described here is described by the wild-type residue modified, the position of the residue in the wildtype NS4A polypeptide, and the residue substituted at that position. […] “Pen” refers to Penacillamine; “chA” refers to β-cyclohexylalanine; “t” refers to “tert” (so that, for example, “t-L” refers to tert-leucine. […]

NS3 and wt NS4A = NS3 and wt NS4A (Hepatitis C virus genotype 1a, UniProt P27958); assay: Inhibition of cleavage of 5A-pNA by NS3 and wt NS4A; assay type: biochemical, HCV; settings: for inhibition of cleavage of 5A-pNA by NS3 and wt NS4A: FIG. 12
Method: Again, lower case letters indicate the D-amino acid. Cha represents cyclohexylalanine. The peptides were assayed for inhibition of cleavage of 5A-pNA by NS3 and wt NS4A.

NS3 [1] = target: T2, NS3 (Hepatitis C virus genotype 1a, UniProt P27958); assay: Activation of NS3 by mutant NS4A peptides using 5A-pNA as the substrate; assay type: biochemical, HCV; settings: for kcat: substrate 5A-pNA, extrapolated to infinite NS4A concentration
Method: (§1) Binding of the peptides was then analyzed by enzyme kinetics to detect whether the mutated NS4A peptides activated NS3-catalysed cleavage of substrates individually. Two NS3 substrates were used: 5ApNA (which contains the P side residues (six of them) of the substrate linked to para-nitroaniline) and 5A/5B (which is the natural cleavage junction that is found between the NS5A and NS5B proteins) using conventional methods (see, e.g., Landro et. al. 1997, Biochemistry 36 p9340-9348; and “Enzyme Kinetics” by Irwin Segel pub: Wiley and Sons, New York 1975 Chapter 5). Values in the tables were obtained by extrapolating the Km and kcat values obtained for substrates at several concentrations of NS4A mutant peptides to infinite NS4A concentration. The Km and kcat values were obtained from double reciprocal plots of initial velocity measurements made at several concentrations of substrate and a constant NS4Aconcentration. Peptide concentrations used in calculations in Table 3 are based on those supplied by the facility that synthesized the peptides at the inventors' direction.

NS3 [2] = target: T2, NS3; assay: Activation of NS3 by mutant NS4A peptides using 5A/5B as the substrate; assay type: biochemical, HCV; settings: substrate 5A/5B; NS3 batch used for wild-type and V23 mutant peptides
Method: as §1

HCV = settings: PBMCs from an HCV-infected patient, 4 days, NS3 Western blot; preliminary, first experiment
Method: This induces production of HCV in these cells. The PBMCs were grown in the presence of varying concentrations of Peptides 1, 3, or 5 for 4 days, and then harveted, lysed, and analyzed by SDS-PAGE followed by Western blot using monoclonal antibodies that specifically bind HCV NS3 protease. The blots were then stripped and probed with antibodies for SHP-1 as a loading control.

T1 sequence (P27958 1027-1208): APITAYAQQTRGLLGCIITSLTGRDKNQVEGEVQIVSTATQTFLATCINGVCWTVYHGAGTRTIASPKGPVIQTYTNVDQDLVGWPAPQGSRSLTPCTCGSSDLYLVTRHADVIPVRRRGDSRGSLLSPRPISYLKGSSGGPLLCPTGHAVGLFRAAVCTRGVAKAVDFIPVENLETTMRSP
NS3 protease, sequence (P27958 1027-1207): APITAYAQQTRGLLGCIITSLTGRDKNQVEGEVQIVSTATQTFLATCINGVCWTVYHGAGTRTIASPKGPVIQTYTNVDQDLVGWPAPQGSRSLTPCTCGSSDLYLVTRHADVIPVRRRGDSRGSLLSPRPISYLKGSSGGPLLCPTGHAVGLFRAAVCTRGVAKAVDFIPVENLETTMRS
T2 sequence (P27958 1027-1207): as above
NS3 and wt NS4A, sequence (P27958 1027-1207): as above

Q: Which Rate (NS3 protease) does the source give for IVGRIVL [IVGRIVL] here?
A: 1.80 µmol/min/mg

Q: What about the Kd (HCV NS3 protease domain) of the same compound?
A: 103 µM

Q: VGRIVL was tested. Which Rate (NS3 protease) did it give?
A: 1.70 µmol/min/mg

Q: What does the source list for W(Cha)vR(Cha)I(Cha)-NH2 [Peptide 1]?
A: precipitation in the reaction mixture (NS3 and wt NS4A): caused precipitation in the reaction mixture; inhibition of cleavage of 5A-pNA by NS3 and wt NS4A (NS3 and wt NS4A): inhibited this reaction

Q: How did the kcat (NS3 [1]) turn out when KKGSCVIVGRIVLSGK [Peptide V23C] was run?
A: 0.0197 ± 0.00017 s⁻¹

Q: And the kcat (NS3 [2])?
A: 0.124 ± 0.00033 s⁻¹

Q: What about the Kd (HCV NS3 protease domain) of the same compound?
A: 4.8 µM

Q: What does the source list for `CC[C@H](C)[C@H](NC(=O)[C@H](CCCNC(=N)N)NC(=O)CNC(=O)[C@@H](NC(=O)[C@@H](NC(=O)[C@@H](NC(=O)[C@@H](NC(=O)[C@H](CO)NC(=O)CNC(=O)[C@H](CCCCN)NC(=O)[C@@H](N)CCCCN)C(C)(C)S)C(C)C)[C@@H](C)CC)C(C)C)C(=O)N[C@H](C(=O)N[C@@H](CC(C)C)C(=O)N[C@@H](CO)C(=O)NCC(=O)N[C@@H](CCCCN)C(=O)O)C(C)C` [Peptide V23Pen] (H-KKGS[Pen]VIVGRIVLSGK-OH; N-terminus and C-terminus assumed)?
A: kcat (NS3 [1]): 0.0145 ± 0.0015 s⁻¹; kcat (NS3 [2]): 0.113 ± 0.01 s⁻¹; Kd (HCV NS3 protease domain): 4.7 µM

Q: Which Rate (NS3 protease) does the source give for VIVGRIVL [VIVGRIVL] here?
A: 1.76 µmol/min/mg

Q: And the Kd (HCV NS3 protease domain)?
A: 88 µM

Q: Which results are given for FFW(Cha)vR(Cha)-NH2 [Peptide 5]?
A: precipitation in the reaction mixture (NS3 and wt NS4A): caused precipitation in the reaction mixture; inhibition of cleavage of 5A-pNA by NS3 and wt NS4A (NS3 and wt NS4A): inhibited this reaction

Q: With `CC[C@H](C)[C@H](NC(=O)[C@H](CC1CCCCC1)NC(=O)[C@H](CCCNC(=N)N)NC(=O)[C@H](NC(=O)[C@H](CC1CCCCC1)NC(=O)[C@@H](N)CCCNC(=N)N)C(C)C)C(=O)N[C@@H](CC1CCCCC1)C(N)=O` [Peptide 3, R(Cha)vR(Cha)I(Cha)-NH2] (H-R[Cha][dV]R[Cha]I[Cha]-NH2; N-terminus assumed) as the compound, how does the IC50 (NS3 and wt NS4A) read?
A: 163 ± 5 µM

Q: What about the “inhibition of cleavage of 5A-pNA by NS3 and wt NS4A” value (NS3 and wt NS4A) of the same compound?
A: inhibited this reaction

Q: And the “inhibition of replication of HCV in tissue culture” value (HCV)?
A: inhibited replication of HCV in tissue culture

Q: “KKGSVVIVGRIVLSGK [Wild-type, KKGSVVIVGRIVLSGK, reference compound]” was tested. Which Rate (NS3 protease) did it give?
A: 37.4 µmol/min/mg

Q: With KKGSFVIVGRIVLSGK [Peptide V23F] as the compound, how does the “activation of NS3 catalysed cleavage, rank among peptides mutated at the same position” value (NS3 [1]; position 23 or position 26 mutants) read?
A: poorest

Q: What about the kcat (NS3 [1]) of the same compound?
A: 0.00782 ± 0.0005 s⁻¹

Q: What about the kcat (NS3 [2]) of the same compound?
A: 0.0883 ± 0.005 s⁻¹

Q: What about the Kd (HCV NS3 protease domain) of the same compound?
A: 3.7 µM

Q: What about the “FAC-MS elution (later elution = more tightly bound to NS3)” value (HCV NS3 protease domain; Val23 substituted NS4A peptides, FIG. 4) of the same compound?
A: eluted last

Q: VVIVGRI [VVIVGRI] was tested. Which Rate (NS3 protease) did it give?
A: 1.88 µmol/min/mg

Q: And the Kd (HCV NS3 protease domain)?
A: 103 µM

Q: How did the kcat (NS3 [1]) turn out when KKGSLVIVGRIVLSGK [Peptide V23L] was run?
A: 0.0157 ± 0.00075 s⁻¹

Q: What about the Kd (HCV NS3 protease domain) of the same compound?
A: 5.1 µM

Q: What does the source list for Ac-DEMEED-OH [Ac-DEMEED-OH]?
A: FAC-MS elution profile (late elution indicates NS3 binding) (HCV NS3 protease domain; Ac-DEMEEX-OH library randomized at P1, FIG. 2): eluted very late; FAC-MS elution time with a known protease inhibitor added to the library (HCV NS3 protease domain; competitive assay, FIG. 3): shifted forward
